Consider 15 compounds from patent publication US12448389B2, “BRM targeting compounds and associated methods of use” (Prelude Therapeutics Incorporated, priority 2020, dated 2025).

In one assay the target is T1, SMARCA4-HiBiT (Homo sapiens, UniProt P51532).
T1 construct: SMARCA4-HiBiT knock-in Hela monoclonal cell (CS3023226); host or cells: HeLa monoclonal knock-in line (CRISPR HiBiT knock-in at the endogenous locus, heterozygous)
Nature of the assay: SMARCA4 HiBiT degradation assay in HeLa cells. The class given is cell-based. To be noted: 18 hours incubation; for DC50: read-out: HeLa-HiBit-SM4 DC50; for Dmax: HeLa, read-out: HeLa-HiBit-SM4 Dmax (%). The essentials: (§1)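 HeLa monoclonal lines with heterozygous HiBiT knock-in were seeded at 2500 cells/well in EMEM with 10% FBS and treated with compound for 18 h at 37 °C. Remaining tagged protein was measured by Nano-Glo HiBiT lytic luminescence after 30–60 min at RT, and values came from curve fitting.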
A general note: HiBiT is a short tag that completes a luciferase, so light tracks the accessible tagged protein.

For the next assay, the target named is T2, SMARCA2-HiBiT (Homo sapiens, UniProt P51531).
T2 construct: SMARCA2-HiBiT knock-in Hela monoclonal cell (CS302366); host or cells: HeLa monoclonal knock-in line (CRISPR HiBiT knock-in at the endogenous locus, heterozygous)
T2 sequence (P51531 whole entry): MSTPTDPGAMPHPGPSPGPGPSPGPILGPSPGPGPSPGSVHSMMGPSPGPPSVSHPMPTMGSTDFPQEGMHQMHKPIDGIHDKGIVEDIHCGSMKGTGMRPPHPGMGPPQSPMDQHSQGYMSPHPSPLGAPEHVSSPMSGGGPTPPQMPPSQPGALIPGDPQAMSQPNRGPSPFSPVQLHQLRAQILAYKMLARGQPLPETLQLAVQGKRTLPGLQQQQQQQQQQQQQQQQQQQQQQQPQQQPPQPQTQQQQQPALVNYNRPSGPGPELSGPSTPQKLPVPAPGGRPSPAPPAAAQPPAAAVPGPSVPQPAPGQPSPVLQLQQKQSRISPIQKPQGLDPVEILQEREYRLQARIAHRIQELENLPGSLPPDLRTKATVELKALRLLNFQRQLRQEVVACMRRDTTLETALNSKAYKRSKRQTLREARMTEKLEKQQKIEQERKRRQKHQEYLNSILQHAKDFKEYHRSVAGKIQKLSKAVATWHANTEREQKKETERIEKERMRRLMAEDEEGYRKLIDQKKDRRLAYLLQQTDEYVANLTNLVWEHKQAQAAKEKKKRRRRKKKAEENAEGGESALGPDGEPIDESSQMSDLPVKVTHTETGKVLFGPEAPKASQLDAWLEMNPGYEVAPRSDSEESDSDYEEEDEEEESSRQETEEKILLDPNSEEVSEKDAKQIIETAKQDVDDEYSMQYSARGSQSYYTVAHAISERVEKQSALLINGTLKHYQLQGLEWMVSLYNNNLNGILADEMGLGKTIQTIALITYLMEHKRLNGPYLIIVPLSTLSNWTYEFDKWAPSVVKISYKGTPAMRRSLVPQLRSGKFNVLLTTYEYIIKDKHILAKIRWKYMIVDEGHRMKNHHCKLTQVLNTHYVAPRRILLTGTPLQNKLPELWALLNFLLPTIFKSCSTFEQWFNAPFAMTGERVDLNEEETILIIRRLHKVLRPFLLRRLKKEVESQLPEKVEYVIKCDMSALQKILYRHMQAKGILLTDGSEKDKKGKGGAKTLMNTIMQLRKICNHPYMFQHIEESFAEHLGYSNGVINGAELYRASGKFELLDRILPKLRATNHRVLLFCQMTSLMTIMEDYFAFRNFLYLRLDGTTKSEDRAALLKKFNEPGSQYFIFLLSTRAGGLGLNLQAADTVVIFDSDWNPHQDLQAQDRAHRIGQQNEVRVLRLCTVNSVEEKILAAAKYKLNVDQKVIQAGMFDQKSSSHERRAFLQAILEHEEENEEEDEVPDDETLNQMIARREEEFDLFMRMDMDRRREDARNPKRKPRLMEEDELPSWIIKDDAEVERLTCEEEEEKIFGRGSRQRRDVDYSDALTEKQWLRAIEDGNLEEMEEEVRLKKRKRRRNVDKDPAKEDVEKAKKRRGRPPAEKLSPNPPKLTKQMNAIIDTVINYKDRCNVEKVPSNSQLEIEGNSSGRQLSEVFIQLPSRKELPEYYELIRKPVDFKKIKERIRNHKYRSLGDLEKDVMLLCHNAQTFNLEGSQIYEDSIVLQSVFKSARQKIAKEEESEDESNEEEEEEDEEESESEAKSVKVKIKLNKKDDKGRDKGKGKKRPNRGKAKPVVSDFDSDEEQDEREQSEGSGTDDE
The assay can be described thus: SMARCA2 HiBiT degradation assay in HeLa cells. The class given is cell-based. The conditions noted are these: 18 hours incubation; for DC50: read-out: HeLa_HiBit-SM2 DC50; for Dmax: HeLa, read-out: HeLa-HiBit-SM2 Dmax (%). The essentials: as §1

T1 sequence (P51532 whole entry): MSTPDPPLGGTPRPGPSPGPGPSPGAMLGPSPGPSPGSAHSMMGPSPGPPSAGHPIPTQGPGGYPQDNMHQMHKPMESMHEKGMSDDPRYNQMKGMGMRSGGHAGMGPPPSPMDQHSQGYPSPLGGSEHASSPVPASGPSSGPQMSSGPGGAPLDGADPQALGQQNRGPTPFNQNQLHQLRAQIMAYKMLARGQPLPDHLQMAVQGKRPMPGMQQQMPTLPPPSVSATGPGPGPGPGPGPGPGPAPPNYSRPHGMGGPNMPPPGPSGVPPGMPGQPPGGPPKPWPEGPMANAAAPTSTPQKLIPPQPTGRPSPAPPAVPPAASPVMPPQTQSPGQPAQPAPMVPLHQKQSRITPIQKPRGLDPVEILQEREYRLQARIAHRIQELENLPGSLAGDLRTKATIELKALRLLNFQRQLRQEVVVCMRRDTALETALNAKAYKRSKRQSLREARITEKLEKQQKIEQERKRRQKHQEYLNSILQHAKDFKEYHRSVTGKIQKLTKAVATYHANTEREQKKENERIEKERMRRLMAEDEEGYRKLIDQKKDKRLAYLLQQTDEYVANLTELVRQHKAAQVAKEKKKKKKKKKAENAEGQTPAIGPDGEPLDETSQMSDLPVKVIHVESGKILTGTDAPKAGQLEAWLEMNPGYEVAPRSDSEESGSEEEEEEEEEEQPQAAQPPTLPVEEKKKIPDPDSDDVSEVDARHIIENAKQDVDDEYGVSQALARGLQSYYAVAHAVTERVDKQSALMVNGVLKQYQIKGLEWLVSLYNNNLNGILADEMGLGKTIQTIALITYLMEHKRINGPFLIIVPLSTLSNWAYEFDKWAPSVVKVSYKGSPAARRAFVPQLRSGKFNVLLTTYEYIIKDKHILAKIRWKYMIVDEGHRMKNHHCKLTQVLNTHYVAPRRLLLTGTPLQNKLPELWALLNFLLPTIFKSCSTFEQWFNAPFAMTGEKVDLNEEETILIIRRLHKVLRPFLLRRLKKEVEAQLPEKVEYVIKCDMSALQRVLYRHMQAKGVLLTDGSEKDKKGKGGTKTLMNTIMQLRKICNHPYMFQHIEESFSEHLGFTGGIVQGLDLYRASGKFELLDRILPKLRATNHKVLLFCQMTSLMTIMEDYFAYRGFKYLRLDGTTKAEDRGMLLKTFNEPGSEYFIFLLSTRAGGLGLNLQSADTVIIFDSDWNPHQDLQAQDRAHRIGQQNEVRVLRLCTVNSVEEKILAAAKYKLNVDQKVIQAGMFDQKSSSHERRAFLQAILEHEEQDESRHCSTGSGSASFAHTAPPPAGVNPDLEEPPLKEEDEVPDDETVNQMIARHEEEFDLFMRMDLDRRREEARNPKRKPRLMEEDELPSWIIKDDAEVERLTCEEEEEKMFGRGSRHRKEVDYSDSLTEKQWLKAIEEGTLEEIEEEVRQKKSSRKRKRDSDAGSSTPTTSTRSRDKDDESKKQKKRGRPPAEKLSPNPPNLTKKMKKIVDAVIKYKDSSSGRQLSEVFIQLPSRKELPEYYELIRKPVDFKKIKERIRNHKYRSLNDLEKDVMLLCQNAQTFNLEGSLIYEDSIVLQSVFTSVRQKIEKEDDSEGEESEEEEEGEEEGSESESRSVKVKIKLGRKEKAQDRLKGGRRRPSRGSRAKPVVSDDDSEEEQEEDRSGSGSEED

As for `O=C1CCC(N2Cc3ccc(N4CC[C@H](CN5CCN(C(=O)N6CCN7c8cc(-c9ccccc9O)nnc8NC[C@H]7C6)CC5)[C@@H](F)C4)cc3C2=O)C(=O)N1` (stereo partly drawn) [Example 205, 3-[5-[(3R.4R)-3-fluoro-4-[[4-[(10S)-4-(2-hydroxyphenyl)-1,5,6,8,12-pentazatricyclo[8.4.0.02,7]tetradeca-2,4,6-triene-12-carbonyl]piperazin-1-yl]methyl]piperidin-1-yl]-3-oxo-1H-isoindol-2-yl]piperidine-2.6-dione], at SMARCA4-HiBiT, the DC50 lay in the range of 0.01 to 0.1 µM and the Dmax lay in the range of 75 to 85%. Also, on SMARCA2-HiBiT, the DC50 was less than 0.01 µM and the greatest degradation seen (Dmax) was greater than 85%.
The matching figures for `O=C1CCC(N2C(=O)c3ccc(N4CC[C@H](CN5CCN(C(=O)N6CCN7c8cc(-c9ccccc9O)nnc8NC[C@H]7C6)CC5)[C@@H](F)C4)cc3C2=O)C(=O)N1` (stereo partly drawn) [Example 206, 2-(2,6-dioxopiperidin-3-yl)-5-[(3R,4R)-3-fluoro-4-[[4-[(10S)-4-(2-hydroxyphenyl)-1,5,6,8,12-pentazatricyclo [8.4.0.02,7]tetradeca-2(7),3,5-triene-12-carbonyl]piperazin-1-yl]methyl]piperidin-1-yl]isoindole-1,3-dione]: 0.01 to 0.1 µM, 50 to 75%, less than 0.01 µM and greater than 85%.
The matching figures for `O=C1CCC(N2Cc3cc(OCCN4CCC(CN5CCN6c7cc(-c8ccccc8O)nnc7NC[C@H]6C5)CC4)ccc3C2=O)C(=O)N1` (stereo partly drawn) [Example 207, 3-(5-(2-(4-(((S)-2-(2-hydroxyphenyl)-5,6,6a,7,9,10-hexahydro-8H-pyrazino[1′,2′:4,5]pyrazino[2,3-c]pyridazin-8-yl)methyl)piperidin-1-yl)ethoxy)-1-oxoisoindolin-2-yl)piperidine-2,6-dione]: 0.01 to 0.1 µM, no more than 50%, less than 0.01 µM and 50 to 75%.
The matching figures for `O=C1CCC(N2Cc3cc(C4CCN(C5CCN(CCCN6CCN7c8cc(-c9ccccc9O)nnc8NC[C@H]7C6)C5)CC4)ccc3C2=O)C(=O)N1` (stereo partly drawn) [Example 208, 3-(5-(1-(1-(3-((S)-2-(2-hydroxyphenyl)-5,6,6a,7,9,10-hexahydro-8H-pyrazino[1′,2′:4,5]pyrazino[2,3-c]pyridazin-8-yl)propyl)pyrrolidin-3-yl)piperidin-4-yl)-1-oxoisoindolin-2-yl)piperidine-2,6-dione]: less than 0.01 µM, 50 to 75%, less than 0.01 µM and 75 to 85%.
In the case of `O=C1CCC(N2Cc3cc(C4CCN(C5CCN(CCCN6CCN7c8cc(-c9ccccc9O)nnc8NC[C@H]7C6)CC5)CC4)ccc3C2=O)C(=O)N1` (stereo partly drawn) [Example 209, 3-(5-(1′-(3-((S)-2-(2-hydroxyphenyl)-5,6,6a,7,9,10-hexahydro-8H-pyrazino[1′,2′:4,5]pyrazino[2,3-c]pyridazin-8-yl)propyl)-[1,4′-bipiperidin]-4-yl)-1-oxoisoindolin-2-yl)piperidine-2,6-dione], the DC50 on SMARCA4-HiBiT and at SMARCA2-HiBiT was less than 0.01 µM throughout. The Dmax on SMARCA4-HiBiT and on SMARCA2-HiBiT was greater than 85% throughout.
Regarding `O=C1CCC(N2Cc3cc(C4CCN(C5CCCN(CCCN6CCN7c8cc(-c9ccccc9O)nnc8NC[C@H]7C6)C5)CC4)ccc3C2=O)C(=O)N1` (stereo partly drawn) [Example 210, 3-(5-(1′-(3-((S)-2-(2-hydroxyphenyl)-5,6,6a,7,9,10-hexahydro-8H-pyrazino[1′,2′:4,5]pyrazino[2,3-c]pyridazin-8-yl)propyl)-[1,3′-bipiperidin]-4-yl)-1-oxoisoindolin-2-yl)piperidine-2,6-dione], at SMARCA4-HiBiT, the DC50 is less than 0.01 µM and the Dmax fell in the range of 75 to 85%. Further, on SMARCA2-HiBiT, the DC50 is less than 0.01 µM and the Dmax is greater than 85%.
With `O=C1CCC(N2Cc3cc(C4CCN(C5CCCN(CCN6CCN7c8cc(-c9ccccc9O)nnc8NC[C@H]7C6)C5)CC4)ccc3C2=O)C(=O)N1` (stereo partly drawn) [Example 211, 3-(5-(1′-(2-((S)-2-(2-hydroxyphenyl)-5,6,6a,7,9,10-hexahydro-8H-pyrazino[1′,2′:4,5]pyrazino[2,3-c]pyridazin-8-yl)ethyl)-[1,3′-bipiperidin]-4-yl)-1-oxoisoindolin-2-yl)piperidine-2,6-dione], on SMARCA4-HiBiT, the DC50 is less than 0.01 µM and the Dmax is greater than 85%. Further, at SMARCA2-HiBiT, the half-maximal degradation concentration (DC50) is less than 0.01 µM and the Dmax is greater than 85%.
`O=C1CCC(N2Cc3cc(C4CCN(C5CCN(CCN6CCN7c8cc(-c9ccccc9O)nnc8NC[C@H]7C6)CC5)CC4)ccc3C2=O)C(=O)N1` (stereo partly drawn) [Example 212, 3-(5-(1′-(2-((S)-2-(2-hydroxyphenyl)-5,6,6a,7,9,10-hexahydro-8H-pyrazino[1′,2′:4,5]pyrazino[2,3-c]pyridazin-8-yl)ethyl)-[1,4′-bipiperidin]-4-yl)-1-oxoisoindolin-2-yl)piperidine-2,6-dione]: on SMARCA4-HiBiT, the DC50 was less than 0.01 µM and the Dmax was greater than 85%. At SMARCA2-HiBiT, the half-maximal degradation concentration (DC50) is less than 0.01 µM and the greatest degradation seen (Dmax) was greater than 85%.
As to `O=C1CCC(N2Cc3cc(C4CCN(CC5CCN(CCN6CCN7c8cc(-c9ccccc9O)nnc8NC[C@H]7C6)CC5)CC4)ccc3C2=O)C(=O)N1` (stereo partly drawn) [Example 213, 3-(5-(1-((1-(2-((S)-2-(2-hydroxyphenyl)-5,6,6a,7,9,10-hexahydro-8H-pyrazino[1′,2′:4,5]pyrazino[2,3-c]pyridazin-8-yl)ethyl)piperidin-4-yl)methyl)piperidin-4-yl)-1-oxoisoindolin-2-yl)piperidine-2,6-dione], on SMARCA4-HiBiT, the DC50 is less than 0.01 µM and the Dmax was greater than 85%. Moreover, on SMARCA2-HiBiT, the DC50 is less than 0.01 µM and the Dmax is greater than 85%.
Turning to `CC(CN1CCC(N2CCN3c4cc(-c5ccccc5O)nnc4NC[C@H]3C2)CC1)Oc1ccc2c(c1)CN([C@@H]1CCC(=O)NC1=O)C2=O` (stereo partly drawn) [Example 214, (3R)-3-(5-((1-(4-((S)-2-(2-hydroxyphenyl)-5,6,6a,7,9,10-hexahydro-8H-pyrazino[1′,2′:4,5]pyrazino[2,3-c]pyridazin-8-yl)piperidin-1-yl)propan-2-yl)oxy)-1-oxoisoindolin-2-yl)piperidine-2,6-dione], at SMARCA4-HiBiT, the half-maximal degradation concentration (DC50) was less than 0.01 µM and the Dmax fell in the range of 50 to 75%. At SMARCA2-HiBiT, the 50% degradation concentration (DC50) was less than 0.01 µM and the Dmax lay within 75 to 85%.
As for `CC(COc1ccc2c(c1)CN([C@@H]1CCC(=O)NC1=O)C2=O)N1CCC(N2CCN3c4cc(-c5ccccc5O)nnc4NC[C@H]3C2)CC1` (stereo partly drawn) [Example 215, (3R)-3-(5-(2-(4-((S)-2-(2-hydroxyphenyl)-5,6,6a,7,9,10-hexahydro-8H-pyrazino[1′,2′:4,5]pyrazino[2,3-c]pyridazin-8-yl)piperidin-1-yl)propoxy)-1-oxoisoindolin-2-yl)piperidine-2,6-dione], on SMARCA4-HiBiT, the DC50 fell in the range of 0.01 to 0.1 µM and the maximal degradation (Dmax) was in the range of 50 to 75%. On SMARCA2-HiBiT, the DC50 was less than 0.01 µM and the Dmax lay within 50 to 75%.
As to `O=C1CCC(N2C(=O)c3ccc(OC4CCN(CC5CCN(CCN6CCN7c8cc(-c9ccccc9O)nnc8NC[C@H]7C6)CC5)CC4)cc3C2=O)C(=O)N1` (stereo partly drawn) [Example 216, 2-(2,6-dioxopiperidin-3-yl)-5-((1-((1-(2-((S)-2-(2-hydroxyphenyl)-5,6,6a,7,9,10-hexahydro-8H-pyrazino[1′,2′:4,5]pyrazino[2,3-c]pyridazin-8-yl)ethyl)piperidin-4-yl)methyl)piperidin-4-yl)oxy) isoindoline-N, 3-dione], at SMARCA4-HiBiT, the DC50 is less than 0.01 µM and the Dmax lay within 50 to 75%. Also, at SMARCA2-HiBiT, the DC50 was less than 0.01 µM and the Dmax was greater than 85%.
`O=C1CCC(N2Cc3cc(N4CCN(CC5CCN(CCN6CCN7c8cc(-c9ccccc9O)nnc8NC[C@H]7C6)CC5)CC4)ccc3C2=O)C(=O)N1` (stereo partly drawn) [Example 217, 3-(5-(4-((1-(2-((S)-2-(2-hydroxyphenyl)-5,6,6a,7,9,10-hexahydro-8H-pyrazino [1′,2′:4,5]pyrazino[2,3-c]pyridazin-8-yl)ethyl)piperidin-4-yl)methyl)piperazin-1-yl)-1-oxoisoindolin-2-yl)piperidine-2,6-dione]: at SMARCA4-HiBiT, the 50% degradation concentration (DC50) was less than 0.01 µM and the Dmax is greater than 85%. Besides, on SMARCA2-HiBiT, the 50% degradation concentration (DC50) was less than 0.01 µM and the Dmax is greater than 85%.
`O=C1CCC(N2C(=O)c3ccc(N4CCCC(N5CCC(CN6CCN7c8cc(-c9ccccc9O)nnc8NC[C@H]7C6)CC5)C4)cc3C2=O)C(=O)N1` (stereo partly drawn) [Example 218, 2-(2,6-dioxopiperidin-3-yl)-5-(4-(((S)-2-(2-hydroxyphenyl)-5,6,6a,7,9,10-hexahydro-8H-pyrazino[1′,2′:4,5]pyrazino[2,3-c]pyridazin-8-yl)methyl)-[1,3′-bipiperidin]-1′-yl) isoindoline-1,3-dione]: the DC50 on SMARCA4-HiBiT and on SMARCA2-HiBiT was less than 0.01 µM each time. Further, the values for the Dmax on SMARCA4-HiBiT and at SMARCA2-HiBiT were 75 to 85% and greater than 85%, respectively.
`O=C1CCC(N2C(=O)c3ccc(NCCN4CCN(C(=O)N5CCN6c7cc(-c8ccccc8O)nnc7NC[C@H]6C5)CC4)cc3C2=O)C(=O)N1` (stereo partly drawn) [Example 219, 2-(2,6-dioxopiperidin-3-yl)-5-((2-(4-((S)-2-(2-hydroxyphenyl)-6,6a,7,8,9,10-hexahydro-511-pyrazino[1′,2′:4,5]pyrazino[2,3-c]pyridazine-8-carbonyl)piperazin-1-yl)ethyl)amino) isoindoline-1,3-dione]: on SMARCA4-HiBiT, the DC50 was in the range of 0.01 to 0.1 µM and the maximal degradation (Dmax) is no more than 50%. In addition, on SMARCA2-HiBiT, the half-maximal degradation concentration (DC50) is less than 0.01 µM and the Dmax is 50 to 75%.

As usually defined, the DC50 is the concentration giving 50% degradation. In general, Dmax refers to the largest share of the target that was removed.
